{
  "source": "paper PMC8448819",
  "about": "“The Arabidopsis MIK2 receptor elicits immunity by sensing a conserved signature from phytocytokines and microbes” (Nature Communications, 2021)",
  "key": {"[1]": {"test_system": "mik2-like, rlk7, pepr1,2, hae/hsl2 and fls2 mutant seedlings", "assay": "Root growth assay, other receptor kinase mutants", "format": "in vivo, Arabidopsis thaliana", "conditions": "Supplementary Fig. 4c", "excerpt": "The Arabidopsis thaliana accession Columbia-0 (Col-0) was used as wild type (WT). T-DNA insertion mutants of mik2-1 (SALK_061769), mik2-2 (SALK_046987), mik2-like (SALK_112341), and rlk7-3 (SALK_120595) were obtained from the Nottingham Arabidopsis Stock Centre (NASC). The fls2 (SALK_141277), bak1-4, bik1-1/pbl1-1, bak1-5/serk4-1, rbohd mutants, and the transgenic line expressing p35S::GFP have been reported previously[19],[62],[63]. The hae/hsl2 mutant was kindly provided by Dr. Reidunn B. Aalen (University of Oslo, Norway), the pepr1-2/pepr2-2 (pepr1,2) mutant by Dr. Zhi Qi (Inner Mongolia University, China), the scoop12 mutant by Dr. Sébastien Aubourg (INRA, France), a transgenic line expressing p35S::Aequorin by Dr. Marc Knight (Durham University, UK), transgenic line expressing pMYB51::GUS by Dr. Frederick M. Ausubel (Harvard Medical School, USA). […]\nCold stratified seeds were surface-sterilized with 70% (v/v) ethanol for 5 min and were sown on ½MS plates with or without peptides at indicated concentrations. Ten-day-old seedlings grown on plates vertically in a growth chamber were photographed, and the root lengths of seedlings were measured using Image J (http://rsb.info.nih.gov/ij/)."}, "[2]": {"test_system": "MPK3, MPK4 and MPK6 phosphorylation, mik2-1 seedlings", "assay": "MAPK assay (α-pERK1/2 immunoblot), mik2-1", "format": "in vivo, Arabidopsis thaliana", "parameters": "dose or concentration left out as unconfirmed", "conditions": "mik2-1, α-pERK1/2 immunoblot"}, "[3]": {"test_system": "Arabidopsis leaf disks", "assay": "Ethylene production", "format": "in vivo, Arabidopsis thaliana", "conditions": "Fig. 2j, leaf disks of 4-week-old plants, peptides at 1 µM, 23 °C, 4 h, GC-FID", "protocol": "Twelve leaves of 4-week-old plants grown on soil were excised into leaf disks of 0.25 cm^2, followed by overnight incubation in a 25 mL glass vial with 2 mL of ddH2O for recovery. Then, ddH2O was replaced by 1 mL of peptides at 1 µM, and the vials were capped immediately with a rubber stopper and incubated at 23 °C with gentle agitation for 4 h. One mL of the vial headspace was injected into a TRACE^TM 1310 Gas Chromatograph (Thermo Fisher Scientific) with FID supported by Chromeleon 7 for quantitation."}, "[4]": {"test_system": "MYB51 promoter, pMYB51::GUS seedling roots", "assay": "Histochemical GUS staining, pMYB51::GUS", "format": "in vivo, Arabidopsis thaliana", "conditions": "pMYB51::GUS seedlings, 1 µM, 3 h", "excerpt": "Stained samples were fixed with a 3:1 ethanol:acetic acid solution overnight and cleared by lactic acid and photographed with the Olympus SZX10 stereoscopic microscope equipped with DP27 camera."}, "[5]": {"test_system": "RLK7^ECD-MIK2^TK/rlk7 and RLK7/rlk7 transgenic seedlings", "assay": "ROS assay (luminol), RLK7/rlk7 and RLK7^ECD-MIK2^TK/rlk7 seedlings", "format": "in vivo, Arabidopsis thaliana", "conditions": "for ROS production, total: Fig. 1d", "protocol": "ROS burst was determined by a luminol-based assay. […] Then, ddH2O was replaced by 200 µL of reaction solution containing 50 µM of luminol, and 10 µg/mL of horseradish peroxidase (Sigma-Aldrich) supplemented with or without 100 nM or 1 μM peptide. Luminescence was measured immediately after adding the solution with a luminometer (Glomax 20/20n, Promega) with a one-second interval for 15 min. The total values of ROS production were indicated as means of the relative light units (RLUs)."}, "[6]": {"test_system": "gene expression, WT Col-0 seedlings", "assay": "RNA-Seq, WT Col-0", "format": "in vivo, Arabidopsis thaliana", "conditions": "for gene expression fold change: WT, 1 μM PIP1 vs Ctrl, 1 h", "protocol": "Seedlings were then treated with or without 1 μM PIP1 or SCOOP12 for 1 or 6 h and harvested for RNA isolation. Total RNAs (5 μg) from two biological replicates were pooled for cDNA library construction. cDNA library preparation and sequencing were carried out on an Illumina HiSeq 4000 platform with 150-nucleotide pair-end reads in LC-BIO (Hangzhou, China). Total reads were mapped to the Arabidopsis genome (TAIR10; www.arabidopsis.org) with Hisat, and the read counts for every gene were generated with StringTie. The expression levels of genes were calculated by quantifying the cDNA fragments per kilobase of transcript per million fragments mapped (FPKM). Differentially expressed genes (DEGs) between different treatments were defined by fold change of read counts at 1 and 6 h compared to that at 0 h (differential expression analysis using edgeR, fold change ≥ 2 with p-value ≤ 0.01). DEGs were listed in Supplementary Data 2."}, "[7]": {"test_system": "Arabidopsis WT (Col-0) seedlings", "conditions": "RLK7 activation by PIP1; cited from earlier work", "excerpt": "(§1) Plant plasma membrane-resident RKs perceive diverse exogenous and endogenous signals via the extracellular domain and activate intracellular responses through the cytoplasmic kinase domain[1]–[3]. The chimeric receptors with the swapped extracellular and intracellular domains between different RKs have been used to study the specificity of signal perception and signaling activation[48]–[52]. The extracellular domains of RKs determine the ligand-binding specificity[50],[51],[53]. The intracellular kinase domains of different RKs also trigger specific responses. For example, the chimeric rec ..."}, "[8]": {"test_system": "Arabidopsis WT seedlings", "conditions": "RLK7 activation by PIP1; cited from earlier work", "excerpt": "as §1"}},
  "data": [
    {"substance": "PNGDIFTGPSGSGHGGGR [SCOOP10B, synthesized SCOOP peptide corresponding to the SxS motif]", "values": [
      {"measurement": "response of fls2", "setting": "[1]; fls2, root growth", "result": "responded to SCOOP10^B similarly to WT plants"},
      {"measurement": "response of MIK2L, RLK7, PEPR1, PEPR2, HAE and HSL2 mutants", "setting": "[1]; root growth", "result": "not involved in responsiveness to SCOOP10^B"},
      {"measurement": "MAPK activation in mik2", "setting": "[2]", "result": "abolished in mik2 mutants"},
      {"measurement": "ethylene production", "setting": "[3]; repeat 1", "result": 2.0449, "unit": "ppm"},
      {"measurement": "ethylene production", "setting": "[3]; repeat 2", "result": 1.4942, "unit": "ppm"},
      {"measurement": "ethylene production", "setting": "[3]; repeat 3", "result": 1.8726, "unit": "ppm"},
      {"measurement": "MYB51 promoter activity in roots", "setting": "[4]", "result": "induced the promoter activities of MYB51"}
    ]},
    {"substance": "RLASGP(OH)SPRGRGH [PIP1, secreted peptide, ligand of RLK7]", "values": [
      {"measurement": "ROS production, total", "setting": "[5]; RLK7/rlk7 L4, 100 nM PIP1, one-week-old seedlings, repeat 1", "result": 239291, "unit": "RLU"},
      {"measurement": "ROS production, total", "setting": "[5]; RLK7/rlk7 L4, 100 nM PIP1, one-week-old seedlings, repeat 2", "result": 252204, "unit": "RLU"},
      {"measurement": "ROS production, total", "setting": "[5]; RLK7/rlk7 L4, 100 nM PIP1, one-week-old seedlings, repeat 3", "result": 283681, "unit": "RLU"},
      {"measurement": "ROS production, total", "setting": "[5]; RLK7/rlk7 L4, 100 nM PIP1, one-week-old seedlings, repeat 4", "result": 318922, "unit": "RLU"},
      {"measurement": "ROS production, total", "setting": "[5]; RLK7/rlk7 L5, 100 nM PIP1, one-week-old seedlings, repeat 1", "result": 275783, "unit": "RLU"},
      {"measurement": "ROS production, total", "setting": "[5]; RLK7/rlk7 L5, 100 nM PIP1, one-week-old seedlings, repeat 2", "result": 220663, "unit": "RLU"},
      {"measurement": "ROS production, total", "setting": "[5]; RLK7/rlk7 L5, 100 nM PIP1, one-week-old seedlings, repeat 3", "result": 252086, "unit": "RLU"},
      {"measurement": "ROS production, total", "setting": "[5]; RLK7/rlk7 L5, 100 nM PIP1, one-week-old seedlings, repeat 4", "result": 358908, "unit": "RLU"},
      {"measurement": "ROS production, total", "setting": "[5]; RLK7ECD-MIK2TK/rlk7 L9, 100 nM PIP1, one-week-old seedlings, repeat 1", "result": 1753777, "unit": "RLU"},
      {"measurement": "ROS production, total", "setting": "[5]; RLK7ECD-MIK2TK/rlk7 L9, 100 nM PIP1, one-week-old seedlings, repeat 2", "result": 1827311, "unit": "RLU"},
      {"measurement": "ROS production, total", "setting": "[5]; RLK7ECD-MIK2TK/rlk7 L9, 100 nM PIP1, one-week-old seedlings, repeat 3", "result": 2926668, "unit": "RLU"},
      {"measurement": "ROS production, total", "setting": "[5]; RLK7ECD-MIK2TK/rlk7 L9, 100 nM PIP1, one-week-old seedlings, repeat 4", "result": 3467034, "unit": "RLU"},
      {"measurement": "ROS production, total", "setting": "[5]; RLK7ECD-MIK2TK/rlk7 L9, 100 nM PIP1, one-week-old seedlings, repeat 5", "result": 1491639, "unit": "RLU"},
      {"measurement": "ROS production, total", "setting": "[5]; RLK7ECD-MIK2TK/rlk7 L16, 100 nM PIP1, one-week-old seedlings, repeat 1", "result": 3868648, "unit": "RLU"},
      {"measurement": "ROS production, total", "setting": "[5]; RLK7ECD-MIK2TK/rlk7 L16, 100 nM PIP1, one-week-old seedlings, repeat 2", "result": 1259772, "unit": "RLU"},
      {"measurement": "ROS production, total", "setting": "[5]; RLK7ECD-MIK2TK/rlk7 L16, 100 nM PIP1, one-week-old seedlings, repeat 3", "result": 2844613, "unit": "RLU"},
      {"measurement": "ROS production, total", "setting": "[5]; RLK7ECD-MIK2TK/rlk7 L16, 100 nM PIP1, one-week-old seedlings, repeat 4", "result": 3037378, "unit": "RLU"},
      {"measurement": "ROS production, total", "setting": "[5]; RLK7ECD-MIK2TK/rlk7 L16, 100 nM PIP1, one-week-old seedlings, repeat 5", "result": 940879, "unit": "RLU"},
      {"measurement": "ROS production", "setting": "[5]; RLK7/rlk7, 100 nM PIP1", "result": "weakly induced ROS production"},
      {"measurement": "ROS production", "setting": "[5]; RLK7^ECD-MIK2^TK/rlk7, 100 nM PIP1", "result": "robust production of ROS"},
      {"measurement": "overlap of MIK2 kinase domain-upregulated genes with PIP1-upregulated genes in WT", "setting": "[6]; 746 out of 1205 genes of PIP1-treated RLK7^ECD-MIK2^TK/rlk7", "result": 61.9, "unit": "%"},
      {"measurement": "expression of SCOOP genes", "setting": "[6]; WT seedlings", "result": "not in WT plants"},
      {"measurement": "gene expression fold change", "setting": "[6]; gene AT1G56242", "result": 13807.76},
      {"measurement": "gene expression fold change", "setting": "[6]; gene AT1G69920", "result": 473.83},
      {"measurement": "gene expression fold change", "setting": "[6]; gene AT3G60120", "result": 45141.52},
      {"measurement": "root growth", "setting": "[7]", "result": "moderately inhibits root growth"},
      {"measurement": "ROS production", "setting": "[8]", "result": "weakly induces ROS production"}
    ]}
  ]
}
